Non-standard residues stand in square brackets, D forms with d. Residues, ends and D or L forms follow the SMILES beside them. *: point of attachment. X2 = NC(=O)OCCOCCOCCOCCOCCOCCOCCOCCOCCOCCOCCN*; Myristoyl = CCCCCCCCCCCCCC(=O)*
Tested on: S. aureus JAR
Format: cell-based
Settings: JAR, 2 h
Experimental: S. aureus JAR is described in Campoccia et al. (Int. J. Artif. Organs, 2008 September; 31(9):841-7).
For the in vitro killing assay with P10 variants, S. aureus JAR ([…] CFU/ml) were incubated for 2 hours at 37° C. with various concentrations of the peptides in PBS or in PBS/human plasma (1/1, v/v). […] The LC99.9 is the average value of two independent experiments.

Compound | LC99.9 (μM) (50% plasma) | LC99.9 (μM) (PBS)
CC[C@H](C)[C@H](NC(=O)[C@H](CCCCN)NC(=O)[C@H](CCCCN)NC(=O)[C@H](Cc1ccc(O)cc1)NC(=O)[C@H](CCC(=O)O)NC(=O)[C@H](CCCNC(=N)N)NC(=O)[C@H](C)NC(=O)[C@H](CC(C)C)NC(C)=O)C(=O)N[C@H](C(=O)N[C@@H](CCC(=O)O)C(=O)N[C@@H](CCCCN)C(=O)N[C@@H](CC(C)C)C(=O)N[C@@H](CCCCN)C(=O)N[C@@H](CCCNC(=N)N)C(=O)N[C@@H](Cc1c[nH]c2ccccc12)C(=O)N[C@@H](CC(C)C)C(=O)N[C@@H](CCCNC(=N)N)C(=O)N[C@@H](CCC(N)=O)C(=O)N[C@H](C(=O)N[C@@H](CC(C)C)C(=O)N[C@@H](CCCNC(=N)N)C(=O)N[C@H](C(=O)N[C@@H](CC(C)C)C(=O)N[C@@H](CCCNC(=N)N)C(=O)NCCOCCOCCOCCOCCOCCOCCOCCOCCOCCOCCOC(N)=O)[C@@H](C)O)C(C)C)C(C)C [Peptide 1302-5, JLAREYKKIVEKLKRWLRQVLRTLRoB] (Ac-LAREYKKIVEKLKRWLRQVLRTLR-X2) | 102.4 µM | 0.8 µM
Ac-LAREYKKIVEKLKRWLRQLLRTLR-NH2 [Peptide 1302-46, JLAREYKKIVEKLKRWLRQLLRTLRB] | 102.4 µM | 1.6 µM
CC[C@H](C)[C@H](NC(=O)[C@H](CCCCN)NC(=O)[C@H](CCCCN)NC(=O)[C@H](Cc1ccc(O)cc1)NC(=O)[C@H](CCC(=O)O)NC(=O)[C@H](CCCNC(=N)N)NC(=O)[C@H](C)NC(=O)[C@H](CC(C)C)NC(C)=O)C(=O)N[C@H](C(=O)N[C@@H](CCC(=O)O)C(=O)N[C@@H](CCCCN)C(=O)N[C@@H](CC(C)C)C(=O)N[C@@H](CCCCN)C(=O)N[C@@H](CCCNC(=N)N)C(=O)N[C@@H](Cc1c[nH]c2ccccc12)C(=O)N[C@@H](CC(C)C)C(=O)N[C@@H](CCCNC(=N)N)C(=O)N[C@H](CCC(N)=O)C(=O)N[C@H](C(=O)N[C@@H](CC(C)C)C(=O)N[C@@H](CCCNC(=N)N)C(=O)N[C@H](C(=O)N[C@@H](CC(C)C)C(=O)N[C@@H](CCCNC(=N)N)C(N)=O)[C@@H](C)O)C(C)C)C(C)C [Peptide 1301-18, JLAREYKKIVEKLKRWLRqVLRTLRB] (Ac-LAREYKKIVEKLKRWLR[dQ]VLRTLR-NH2) | 38.4 µM | 0.6 µM
Ac-LAREYKKIVEKLKRWLRQVLKTLR-NH2 [Peptide 1302-50, JLAREYKKIVEKLKRWLRQVLKTLRB] | 51.2 µM | 0.8 µM
Ac-LAREYHKIVEKLKRWLRQVLRTLR-NH2 [Peptide 1302-28, JLAREYHKIVEKLKRWLRQVLRTLRB] | 102.4 µM | 1.2 µM
CCCCCCCCCCCCCC(=O)N[C@@H](CC(C)C)C(=O)N[C@@H](C)C(=O)N[C@@H](CCCNC(=N)N)C(=O)N[C@@H](CCC(=O)O)C(=O)N[C@@H](Cc1ccc(O)cc1)C(=O)N[C@@H](CCCCN)C(=O)N[C@@H](CCCCN)C(=O)N[C@H](C(=O)N[C@H](C(=O)N[C@@H](CCC(=O)O)C(=O)N[C@@H](CCCCN)C(=O)N[C@@H](CC(C)C)C(=O)N[C@@H](CCCCN)C(=O)N[C@@H](CCCNC(=N)N)C(=O)N[C@@H](Cc1c[nH]c2ccccc12)C(=O)N[C@@H](CC(C)C)C(=O)N[C@@H](CCCNC(=N)N)C(=O)N[C@@H](CCC(N)=O)C(=O)N[C@H](C(=O)N[C@@H](CC(C)C)C(=O)N[C@@H](CCCNC(=N)N)C(=O)N[C@H](C(=O)N[C@@H](CC(C)C)C(=O)N[C@@H](CCCNC(=N)N)C(N)=O)[C@@H](C)O)C(C)C)C(C)C)[C@@H](C)CC [Peptide 1302-10, uLAREYKKIVEKLKRWLRQVLRTLRB] (Myristoyl-LAREYKKIVEKLKRWLRQVLRTLR-NH2) | 102.4 µM | 2.0 µM
Ac-LAREYKKIVEKLKRWLRQVLRALR-NH2 [Peptide 1302-54, JLAREYKKIVEKLKRWLRQVLRALRB] | 51.2 µM | 0.8 µM
CC[C@H](C)[C@H](NC(=O)[C@H](CCCCN)NC(=O)[C@H](CCCCN)NC(=O)[C@H](Cc1ccc(O)cc1)NC(=O)[C@H](CCC(=O)O)NC(=O)[C@H](CCCNC(=N)N)NC(=O)[C@H](C)NC(=O)[C@H](CC(C)C)NC(C)=O)C(=O)N[C@@H](C(=O)N[C@@H](CCC(=O)O)C(=O)N[C@@H](CCCCN)C(=O)N[C@@H](CC(C)C)C(=O)N[C@@H](CCCCN)C(=O)N[C@@H](CCCNC(=N)N)C(=O)N[C@@H](Cc1c[nH]c2ccccc12)C(=O)N[C@@H](CC(C)C)C(=O)N[C@@H](CCCNC(=N)N)C(=O)N[C@@H](CCC(N)=O)C(=O)N[C@H](C(=O)N[C@@H](CC(C)C)C(=O)N[C@@H](CCCNC(=N)N)C(=O)N[C@H](C(=O)N[C@@H](CC(C)C)C(=O)N[C@@H](CCCNC(=N)N)C(N)=O)[C@@H](C)O)C(C)C)C(C)C [Peptide 1301-9, JLAREYKKIvEKLKRWLRQVLRTLRB] (Ac-LAREYKKI[dV]EKLKRWLRQVLRTLR-NH2) | 38.4 µM | 0.6 µM
Ac-LAREYRKIVEKLKRWLRQVLRTLR-NH2 [Peptide 1302-27, JLAREYRKIVEKLKRWLRQVLRTLRB] | 76.8 µM | 0.8 µM
CC[C@H](C)[C@H](NC(=O)[C@H](CCCCN)NC(=O)[C@H](CCCCN)NC(=O)[C@H](Cc1ccc(O)cc1)NC(=O)[C@H](CCC(=O)O)NC(=O)[C@H](CCCNC(=N)N)NC(=O)[C@@H](C)NC(=O)[C@H](CC(C)C)NC(C)=O)C(=O)N[C@H](C(=O)N[C@@H](CCC(=O)O)C(=O)N[C@@H](CCCCN)C(=O)N[C@@H](CC(C)C)C(=O)N[C@@H](CCCCN)C(=O)N[C@@H](CCCNC(=N)N)C(=O)N[C@@H](Cc1c[nH]c2ccccc12)C(=O)N[C@@H](CC(C)C)C(=O)N[C@@H](CCCNC(=N)N)C(=O)N[C@@H](CCC(N)=O)C(=O)N[C@H](C(=O)N[C@@H](CC(C)C)C(=O)N[C@@H](CCCNC(=N)N)C(=O)N[C@H](C(=O)N[C@@H](CC(C)C)C(=O)N[C@@H](CCCNC(=N)N)C(N)=O)[C@@H](C)O)C(C)C)C(C)C [Peptide 1301-2, JLaREYKKIVEKLKRWLRQVLRTLRB] (Ac-L[dA]REYKKIVEKLKRWLRQVLRTLR-NH2) | 38.4 µM | 0.6 µM
Ac-LQREYKKIVEKLKRWLRQVLRTLR-NH2 [Peptide 1302-22, JLQREYKKIVEKLKRWLRQVLRTLRB] | 76.8 µM | 1.6 µM
Ac-LAREYKKIVEKLKHWLRQVLRTLR-NH2 [Peptide 1302-39, JLAREYKKIVEKLKHWLRQVLRTLRB] | 102.4 µM | 3.2 µM
Ac-LAREYKKIVEKLKRWLRQVLRTLH-NH2 [Peptide 1302-55, JLAREYKKIVEKLKRWLRQVLRTLHB] | 102.4 µM | 1.2 µM
CC[C@H](C)[C@H](NC(=O)[C@H](CCCCN)NC(=O)[C@H](CCCCN)NC(=O)[C@H](Cc1ccc(O)cc1)NC(=O)[C@H](CCC(=O)O)NC(=O)[C@H](CCCNC(=N)N)NC(=O)[C@H](C)NC(=O)[C@H](CC(C)C)NC(C)=O)C(=O)N[C@H](C(=O)N[C@@H](CCC(=O)O)C(=O)N[C@@H](CCCCN)C(=O)N[C@@H](CC(C)C)C(=O)N[C@@H](CCCCN)C(=O)N[C@@H](CCCNC(=N)N)C(=O)N[C@@H](Cc1c[nH]c2ccccc12)C(=O)N[C@@H](CC(C)C)C(=O)N[C@@H](CCCNC(=N)N)C(=O)N[C@@H](CCC(N)=O)C(=O)N[C@H](C(=O)N[C@@H](CC(C)C)C(=O)N[C@@H](CCCNC(=N)N)C(=O)N[C@H](C(=O)N[C@H](CC(C)C)C(=O)N[C@@H](CCCNC(=N)N)C(N)=O)[C@@H](C)O)C(C)C)C(C)C [Peptide 1301-23, JLAREYKKIVEKLKRWLRQVLRTlRB] (Ac-LAREYKKIVEKLKRWLRQVLRT[dL]R-NH2) | 32.0 µM | 0.4 µM
Ac-LAREYKKIVEKLKRWLRNVLRTLR-NH2 [Peptide 1302-42, JLAREYKKIVEKLKRWLRNVLRTLRB] | 76.8 µM | 1.6 µM
Ac-LAREYKKIVEKLKRWLHQVLRTLR-NH2 [Peptide 1302-41, JLAREYKKIVEKLKRWLHQVLRTLRB] | 102.4 µM | 1.6 µM
CC[C@H](C)[C@H](NC(=O)[C@H](CCCCN)NC(=O)[C@H](CCCCN)NC(=O)[C@H](Cc1ccc(O)cc1)NC(=O)[C@H](CCC(=O)O)NC(=O)[C@H](CCCNC(=N)N)NC(=O)[C@H](C)NC(=O)[C@H](CC(C)C)NC(C)=O)C(=O)N[C@H](C(=O)N[C@@H](CCC(=O)O)C(=O)N[C@@H](CCCCN)C(=O)N[C@@H](CC(C)C)C(=O)N[C@@H](CCCCN)C(=O)N[C@H](CCCNC(=N)N)C(=O)N[C@@H](Cc1c[nH]c2ccccc12)C(=O)N[C@@H](CC(C)C)C(=O)N[C@@H](CCCNC(=N)N)C(=O)N[C@@H](CCC(N)=O)C(=O)N[C@H](C(=O)N[C@@H](CC(C)C)C(=O)N[C@@H](CCCNC(=N)N)C(=O)N[C@H](C(=O)N[C@@H](CC(C)C)C(=O)N[C@@H](CCCNC(=N)N)C(N)=O)[C@@H](C)O)C(C)C)C(C)C [Peptide 1301-14, JLAREYKKIVEKLKrWLRQVLRTLRB] (Ac-LAREYKKIVEKLK[dR]WLRQVLRTLR-NH2) | 38.4 µM | 0.6 µM
Ac-KKIVEKLKRWLRQ-NH2 [Peptide 1302-63, JKKIVEKLKRWLRQB] | 102.4 µM | >3.2 µM
Ac-LAREYKKIVEKLKRWLRQVIRTLR-NH2 [Peptide 1302-47, JLAREYKKIVEKLKRWLRQVIRTLRB] | 76.8 µM | 1.6 µM
Ac-LAREYKKIVEKLKRWLRSVLRTLR-NH2 [Peptide 1302-44, JLAREYKKIVEKLKRWLRSVLRTLRB] | 76.8 µM | 1.6 µM
Ac-LARQYKKIVEKLKRWLRQVLRTLR-NH2 [Peptide 1302-25, JLARQYKKIVEKLKRWLRQVLRTLRB] | 51.2 µM | 1.2 µM
